Assay results: ChEMBL document CHEMBL1138648, “Synthesis of new N-(2-(trifluoromethyl)pyridin-4-yl)anthranilic acid derivatives and their evaluation as anticancer agents” (2004)

Tests used:
Type in all cases: functional
NCI-H460 [1] = experiment: In vitro percent of proliferation of vehicle treated NCI-H460 human lung cell lines was determined at 0.0010 M concentration
SF-268 [2] = experiment: In vitro percent of proliferation of vehicle treated SF-268 human CNS cell lines was determined at 0.0010 M concentration
MCF7 [3] = experiment: In vitro percent of proliferation of vehicle treated MCF-7 human breast cell lines was determined at 0.0010 M concentration
OVCAR-3 = experiment: Growth inhibitory activity against Ovarian cancer OVCAR-3 cell line was determined; details: Homo sapiens
MDA-MB-435 = experiment: Growth inhibitory activity against Breast cancer MDA-MB-435 cell line was determined; details: Homo sapiens
SF-268 [4] = experiment: Growth inhibitory activity against CNS cancer SF-268 cell line was determined; details: Homo sapiens
SF-295 = experiment: Growth inhibitory activity against CNS cancer SF-295 cell line was determined; details: Homo sapiens
M14 = experiment: Growth inhibitory activity against Melanoma M14 cell line was determined; details: Homo sapiens
HCT-15 = experiment: Growth inhibitory activity against colon cancer HCT-15 cell line was determined; details: Homo sapiens
NCI-H226 = experiment: Growth inhibitory activity against non small cell lung cancer NCI-H226 cell line was determined; details: Homo sapiens
PC-3 = experiment: Growth inhibitory activity against Prostate cancer PC-3 cell line was determined; details: Homo sapiens
OVCAR-8 = experiment: Growth inhibitory activity against Ovarian cancer OVCAR-8 cell line was determined; details: Homo sapiens
NCI-H522 = experiment: Growth inhibitory activity against non small cell lung cancer H522 cell line was determined; details: Homo sapiens
EKVX = experiment: Growth inhibitory activity against non small cell lung cancer EKVX cell line was determined; details: Homo sapiens
SR = experiment: Growth inhibitory activity against Leukemia SR cell line was determined; details: Homo sapiens
HOP-92 = experiment: Growth inhibitory activity against non small cell lung cancer HOP-92 cell line was determined; details: Homo sapiens
SN12C = experiment: Growth inhibitory activity against Renal cancer SN12C cell line was determined; details: Homo sapiens
MDA-MB-231 = experiment: Growth inhibitory activity against Breast cancer MDA-MB-231/ATCC cell line was determined; details: Homo sapiens
CCRF-CEM = experiment: Growth inhibitory activity against Leukemia CCRF-CEM cell line was determined; details: Homo sapiens
SK-MEL-5 = experiment: Growth inhibitory activity against Melanoma SK-MEL-5 cell line was determined; details: Homo sapiens
RPMI-8226 = experiment: Growth inhibitory activity against Leukemia RPMI-8226 cell line was determined; details: Homo sapiens
NCI-H322M = experiment: Growth inhibitory activity against non small cell lung cancer NCI-H322M cell line was determined; details: Homo sapiens
A498 = experiment: Growth inhibitory activity against Renal cancer A498 cell line was determined; details: Homo sapiens
KM12 = experiment: Growth inhibitory activity against colon cancer KM12 cell line was determined; details: Homo sapiens
HL-60 = experiment: Growth inhibitory activity against Leukemia HL-60(TB) cell line was determined; details: Homo sapiens
NCI-H460 [5] = experiment: Growth inhibitory activity against non small cell lung cancer H460 cell line was determined; details: Homo sapiens
MOLT-4 = experiment: Growth inhibitory activity against Leukemia MOLT-4 cell line was determined; details: Homo sapiens
UACC-62 = experiment: Growth inhibitory activity against Melanoma UACC-62 cell line was determined; details: Homo sapiens
A549 = experiment: Growth inhibitory activity against non small cell lung cancer A549/ATCC cells; details: Homo sapiens
SF-539 = experiment: Growth inhibitory activity against CNS cancer SF-539 cell line was determined; details: Homo sapiens
K562 = experiment: Growth inhibitory activity against Leukemia K-562 cell line was determined; details: Homo sapiens
DU-145 = experiment: Growth inhibitory activity against Prostate cancer DU-145 cell line was determined; details: Homo sapiens
HCC 2998 = experiment: Growth inhibitory activity against colon cancer HCC2998 cell line was determined; details: Homo sapiens
TK-10 = experiment: Growth inhibitory activity against Renal cancer TK-10 cell line was determined; details: Homo sapiens
786-0 = experiment: Growth inhibitory activity against Renal cancer 786-0 cell line was determined; details: Homo sapiens
CAKI-1 = experiment: Growth inhibitory activity against Renal cancer CAKI-1 cell line was determined; details: Homo sapiens
UACC-257 = experiment: Growth inhibitory activity against Melanoma UACC-257 cell line was determined; details: Homo sapiens
NCI-H23 = experiment: Growth inhibitory activity against non small cell lung cancer NCI-H23 cell line was determined; details: Homo sapiens
SW-620 = experiment: Growth inhibitory activity against colon cancer SW-620 cell line was determined; details: Homo sapiens
ACHN = experiment: Growth inhibitory activity against Renal cancer ACHN cell line was determined; details: Homo sapiens
MCF7 [6] = experiment: Growth inhibitory activity against Breast cancer MCF-7 cell line was determined; details: Homo sapiens
OVCAR-5 = experiment: Growth inhibitory activity against Ovarian cancer OVCAR-5 cell line was determined; details: Homo sapiens
BT-549 = experiment: Growth inhibitory activity against Breast cancer BT-549 cell line was determined; details: Homo sapiens
NCI/ADR-RES = experiment: Growth inhibitory activity against Breast cancer NCI/ADR-RES cell line was determined; details: Homo sapiens
Hs-578T = experiment: Growth inhibitory activity against Breast cancer HS 578T cell line was determined; details: Homo sapiens

Structure (SMILES): O=C(Nc1cccnc1)c1ccccc1Nc1ccnc(C(F)(F)F)c1
- Proliferation (NCI-H460 [1]): 62%
- Proliferation (SF-268 [2]): 98%
- Proliferation (MCF7 [3]): 56%

Structure (SMILES): COc1ccc(OC(=O)c2ccccc2Nc2ccnc(C(F)(F)F)c2)cc1
- Proliferation (NCI-H460 [1]): 49%
- Proliferation (SF-268 [2]): 105%
- Proliferation (MCF7 [3]): 74%

Structure (SMILES): O=C(Oc1ccc(Cl)cc1Cl)c1ccccc1Nc1ccnc(C(F)(F)F)c1
- GI50 (OVCAR-3): 11 µM
- GI50 (MDA-MB-435): 2.9 µM
- GI50 (SF-268 [4]): 3.1 µM
- GI50 (SF-295): 15 µM
- GI50 (M14): 1.9 µM
- Proliferation (NCI-H460 [1]): 1%
- GI50 (HCT-15): 2.2 µM
- GI50 (NCI-H226): 3.4 µM
- GI50 (PC-3): 8.3 µM
- GI50 (OVCAR-8): 4.8 µM
- GI50 (NCI-H522): 4.6 µM
- GI50 (EKVX): 19 µM
- GI50 (SR): 0.77 µM
- GI50 (HOP-92): 12 µM
- GI50 (SN12C): 3 µM
- GI50 (MDA-MB-231): 2.2 µM
- GI50 (CCRF-CEM): 3.5 µM
- Proliferation (SF-268 [2]): 9%
- GI50 (SK-MEL-5): 2.8 µM
- GI50 (RPMI-8226): 2.4 µM
- GI50 (NCI-H322M): 14 µM
- GI50 (A498): 21 µM
- GI50 (KM12): 3.7 µM
- GI50 (HL-60): 6.6 µM
- GI50 (NCI-H460 [5]): 4.3 µM
- GI50 (MOLT-4): 100 µM
- Proliferation (MCF7 [3]): 3%
- GI50 (UACC-62): 2.3 µM
- GI50 (A549): 11 µM
- GI50 (SF-539): 3.8 µM
- GI50 (K562): 3 µM
- GI50 (DU-145): 16 µM
- GI50 (HCC 2998): 3.2 µM
- GI50 (TK-10): 4.1 µM
- GI50 (786-0): 1.9 µM
- GI50 (CAKI-1): 2.1 µM
- GI50 (UACC-257): 11 µM
- GI50 (NCI-H23): 3.5 µM
- GI50 (SW-620): 4.6 µM
- GI50 (ACHN): 13 µM
- GI50 (MCF7 [6]): 3.6 µM
- GI50 (OVCAR-5): 7.9 µM
- GI50 (BT-549): 6.8 µM
- GI50 (NCI/ADR-RES): 3.6 µM
- GI50 (Hs-578T): 25 µM

Structure (SMILES): CCOC(=O)c1ccccc1Nc1ccnc(C(F)(F)F)c1
- Proliferation (NCI-H460 [1]): 102%
- Proliferation (SF-268 [2]): 103%
- Proliferation (MCF7 [3]): 98%

Structure (SMILES): O=C(Oc1ccc(Cl)cc1)c1ccccc1Nc1ccnc(C(F)(F)F)c1
- GI50 (OVCAR-3): 11 µM
- GI50 (MDA-MB-435): 2.1 µM
- GI50 (SF-268 [4]): 4.4 µM
- GI50 (SF-295): 63 µM
- GI50 (M14): 2.1 µM
- Proliferation (NCI-H460 [1]): 9%
- GI50 (HCT-15): 2.1 µM
- GI50 (NCI-H226): 2.9 µM
- GI50 (PC-3): 17 µM
- GI50 (OVCAR-8): 4.1 µM
- GI50 (NCI-H522): 4.3 µM
- GI50 (EKVX): 25 µM
- GI50 (SR): 4 µM
- GI50 (HOP-92): 21 µM
- GI50 (SN12C): 3 µM
- GI50 (MDA-MB-231): 1.8 µM
- GI50 (CCRF-CEM): 4.9 µM
- Proliferation (SF-268 [2]): 28%
- GI50 (SK-MEL-5): 17 µM
- GI50 (RPMI-8226): 2.9 µM
- GI50 (NCI-H322M): 17 µM
- GI50 (KM12): 8.9 µM
- GI50 (HL-60): 6.4 µM
- GI50 (NCI-H460 [5]): 10 µM
- GI50 (MOLT-4): 100 µM
- Proliferation (MCF7 [3]): 24%
- GI50 (UACC-62): 2.6 µM
- GI50 (A549): 15 µM
- GI50 (SF-539): 15 µM
- GI50 (K562): 3.6 µM
- GI50 (DU-145): 19 µM
- GI50 (HCC 2998): 13 µM
- GI50 (TK-10): 18 µM
- GI50 (786-0): 2.7 µM
- GI50 (CAKI-1): 2.3 µM
- GI50 (UACC-257): 4.5 µM
- GI50 (NCI-H23): 2.8 µM
- GI50 (SW-620): 6.6 µM
- GI50 (ACHN): 11 µM
- GI50 (MCF7 [6]): 3.7 µM
- GI50 (OVCAR-5): 26 µM
- GI50 (BT-549): 15 µM
- GI50 (NCI/ADR-RES): 16 µM
- GI50 (Hs-578T): 30 µM

Structure (SMILES): CSc1ccc(OC(=O)c2ccccc2Nc2ccnc(C(F)(F)F)c2)cc1
- Proliferation (NCI-H460 [1]): 68%
- Proliferation (SF-268 [2]): 81%
- Proliferation (MCF7 [3]): 80%

Structure (SMILES): COC(=O)c1ccccc1Nc1ccnc(C(F)(F)F)c1
- Proliferation (NCI-H460 [1]): 100%
- Proliferation (SF-268 [2]): 103%
- Proliferation (MCF7 [3]): 96%
